# Reference: ChEMBL document CHEMBL6078646, “Target Ligand Separation and Identification of Isoforsythiaside as a Histone Lysine-Specific Demethylase 1 Covalent Inhibitor Against Breast Cancer Metastasis” (J Med Chem, 2024)
# Calls of active or inactive are those of the source. No cut-off for these calls is given here.
# Key:
# MDA-MB-231 [1] = experiment: Induction of RBMS3 promoter transcriptional activity in human MDA-MB-231 cells by luciferase reporter gene assay; format: functional, cell-based
# [2] = Toxicity in female Balb/c nude mouse xenografted with human MDA-MB-231 cells expressing luciferase assessed as appearance of liver lesions at 12 to 50 mg/kg, ip administered every 3 days and measured after 30 days by H and E staining based analysis; format: organism-based; details: in vivo, 720 h, dose 12-50 mg/kg, time 30 day
# [3] = Toxicity in female Balb/c mouse assessed as effect on BUN level at 50 mg/kg, ip administered every other day for 7 times; format: organism-based; details: in vivo
# [4] = Toxicity in female Balb/c mouse assessed as effect on ALT level at 50 mg/kg, ip administered every other day for 7 times; format: organism-based; details: in vivo
# [5] = Toxicity in female Balb/c mouse assessed as effect on monocytes level at 50 mg/kg, ip administered every other day for 7 times; format: organism-based; details: in vivo
# [6] = Acute toxicity in female ICR mouse assessed as lethal dose administered intraperitoneally for 14 days; details: in vivo, route ip, time 14 day
# MDA-MB-231 [7] = experiment: Cytotoxicity against human MDA-MB-231 cells assessed as cell viability at 0 to 100 uM incubated for 24 hrs by MTT assay; format: functional; details: dose 0-100 µM
# Homo sapiens [8] = species: Homo sapiens; experiment: Inhibition of recombinant LSD1 Ser817A mutant (unknown origin)
# MCF7 = experiment: Cytotoxicity against human MCF7 cells assessed as cell viability at 0 to 100 uM incubated for 24 hrs by MTT assay; format: functional; details: dose 0-100 µM
# MDA-MB-231 [9] = experiment: Effect on LSD1 protein expression in human MDA-MB-231 cells at 4 to 32 uM by Western blot analysis; format: functional, cell-based; details: dose 4-32 µM
# [10] = Toxicity in female Balb/c mouse assessed as effect on granulocyte level at 50 mg/kg, ip administered every other day for 7 times; format: organism-based; details: in vivo
# [11] = Toxicity in female Balb/c nude mouse xenografted with human MDA-MB-231 cells expressing luciferase assessed as abnormalities heart at 12 to 50 mg/kg, ip administered every 3 days and measured after 30 days by H and E staining based analysis; format: organism-based; details: in vivo, 720 h, dose 12-50 mg/kg, time 30 day
# MDA-MB-231 [12] = experiment: Inhibition of cell migration in human MDA-MB-231 cells incubated for 24 hrs by phase contrast microscopy based wound healing assay; format: functional; details: dose 0-32 µM
# MDA-MB-231 [13] = experiment: Antimetastatic activity against human MDA-MB-231 cells expressing luciferase xenografted in female Balb/c nude mouse assessed as reduction in number of metastatic nodules in the lung at 12 mg/kg, ip administered every 3 days and measured after 30 days by H and E staining based histopathological analysis relative to control; format: functional; design: scale not given: the % may be the effect or the level left; details: time 30 day
# Homo sapiens [14] = species: Homo sapiens; experiment: Effect on LSD1/CoREST/HDAC1/HDAC2 (unknown origin) complex by coimmunoprecipitation analysis
# MDA-MB-231 [15] = experiment: Inhibition of epithelial to mesenchymal transition in human MDA-MB-231 cells assessed as downregulation of N-cadherin protein expression by Western blotting analysis; format: functional, cell-based; details: dose 0-32 µM
# [16] = Toxicity in female Balb/c mouse assessed as effect on AST level at 50 mg/kg, ip administered every other day for 7 times; format: organism-based; details: in vivo
# MDA-MB-231 [17] = experiment: Antitumor activity against human MDA-MB-231 cells expressing luciferase xenografted in female Balb/c nude mouse assessed as increase in body weight at 12 to 50 mg/kg, ip administered every 3 days and measured after 33 days; format: functional, organism-based; details: dose 12-50 mg/kg, time 33.0 day
# MDA-MB-231 [18] = experiment: Upregulation of RBMS3 protein expression in human MDA-MB-231 cells at 4 to 32 uM by Western blotting analysis; format: functional, cell-based; details: dose 4-32 µM
# MDA-MB-231 [19] = experiment: Effect on CD86 protein expression in LSD1 knockout human MDA-MB-231 cells at 16 uM by Western blot analysis; format: functional, cell-based
# MDA-MB-231 [20] = experiment: Inhibition of MMP2 production in human MDA-MB-231 cells by Western blotting analysis; format: functional, cell-based; details: dose 0-32 µM
# Homo sapiens [21] = species: Homo sapiens; experiment: Binding affinity to recombinant LSD1 Ser817A mutant (unknown origin) by MST assay
# [22] = Toxicity in female Balb/c mouse assessed as effect on lymphocyte level at 50 mg/kg, ip administered every other day for 7 times; format: organism-based; details: in vivo
# [23] = target: T1, Lysine-specific histone demethylase 1A (Homo sapiens, UniProt O60341); experiment: Inhibition of LSD1 in human MDA-MB-231 cells assessed as increase in H3K4me1 accumulation by Western blotting analysis; format: cell-based; details: dose 0-32 µM
# [24] = Toxicity in female Balb/c mouse assessed as effect on RBC level at 50 mg/kg, ip administered every other day for 7 times; format: organism-based; details: in vivo
# MDA-MB-231 [25] = experiment: Inhibition of cell migration in LSD1 knockout human MDA-MB-231 cells at 16 uM incubated for 24 hrs by phase-contrast microscopy based wound healing assay; format: functional
# MDA-MB-231 [26] = experiment: Effect on N-cadherin protein expression in LSD1 knockout human MDA-MB-231 cells at 16 uM by Western blot analysis; format: functional, cell-based
# [27] = target: T1, Lysine-specific histone demethylase 1A; experiment: Inhibition of LSD1 (unknown origin) at 0.32 to 6.40 uM; details: dose 0.32-6.4 µM, time 0-25 min
# [28] = target: T1, Lysine-specific histone demethylase 1A; experiment: Binding affinity to LSD1 (unknown origin) assessed as protection of pronase-dependent degradation at 15 to 75 uM preincubated for 30 mins followed by pronase addition and measured after 30 mins by DARTS assay; details: dose 15-75 µM, time 60.0 min
# Homo sapiens [29] = species: Homo sapiens; experiment: Binding affinity to recombinant LSD1 Ser817A mutant (unknown origin) assessed as thermal stability at 50 uM preincubated for 30 mins followed by incubation under 37 to 52 degreeC for 5 mins by CETSA; details: time 35.0 min
# [30] = Toxicity in female Balb/c mouse assessed as histological changes in spleen at 50 mg/kg, ip administered every other day for 7 times by H and E staining based analysis; format: organism-based; details: in vivo
# [31] = Toxicity in female Balb/c mouse assessed as effect on creatine kinase level at 50 mg/kg, ip administered every other day for 7 times; format: organism-based; details: in vivo
# MDA-MB-231 [32] = experiment: Antimetastatic activity against LSD1 knockout human MDA-MB-231 cells xenografted in mouse model assessed as reduction in number of metastatic nodules in the lung measured after 27 days; format: functional, cell-based; details: time 27.0 day
# MDA-MB-231 [33] = experiment: Antimetastatic activity against LSD1 knockout human MDA-MB-231 cells xenografted in mouse model assessed as reduction in metastatic nodules in lung measured after 27 days by H and E staining based analysis; format: functional, cell-based; details: time 27.0 day
# MDA-MB-231 [34] = experiment: Antimetastatic activity against human MDA-MB-231 cells expressing luciferase xenografted in female Balb/c nude mouse assessed as reduction in fluorescence intensity in lungs at 25 mg/kg, ip administered every 3 days and measured on day 15 by bioluminescence imaging analysis relative to control; format: functional; design: scale not given: the % may be the effect or the level left; details: time 15 day
# MDA-MB-231 [35] = experiment: Antimetastatic activity against human MDA-MB-231 cells expressing luciferase xenografted in female Balb/c nude mouse assessed as reduction in number of metastatic nodules in the lung at 25 mg/kg, ip administered every 3 days and measured after 30 days by H and E staining based histopathological analysis relative to control; format: functional; design: scale not given: the % may be the effect or the level left; details: time 30 day
# [36] = Tmax in male Sprague-Dawley rat at 10 mg/kg, ip measured at 0 to 1440 mins by LC-MS/MS analysis; format: ADME, organism-based; details: in vivo, time 0-1440 min
# [37] = target: T1, Lysine-specific histone demethylase 1A; experiment: Inhibition of LSD1 in human MDA-MB-231 cells assessed as increase in H3K4me2 accumulation by Western blotting analysis; format: cell-based; details: dose 0-32 µM
smiles,measurement,setting,value
C[C@@H]1O[C@H](OC[C@H]2O[C@@H](OCCc3ccc(O)c(O)c3)[C@H](O)[C@@H](OC(=O)/C=C/c3ccc(O)c(O)c3)[C@@H]2O)[C@H](O)[C@H](O)[C@H]1O,Activity,MDA-MB-231 [1],Active
same,Activity,[2],Non-toxic
same,Activity,[3],Non-toxic
same,Activity,[4],Non-toxic
same,Activity,[5],Non-toxic
same,LD50 at 336 h,[6],> 600 mg/kg
same,Activity,MDA-MB-231 [7],>90%
same,inhibition,Homo sapiens [8],inactive
same,Activity,MCF7,>90%
same,Activity,MDA-MB-231 [9],inactive
same,Activity,[10],Non-toxic
same,Activity,[11],Non-toxic
same,inhibition,MDA-MB-231 [12],Dose-dependent-effect
same,Activity,MDA-MB-231 [13],7.1%
same,Activity,Homo sapiens [14],inactive
same,inhibition,MDA-MB-231 [15],Dose-dependent-effect
same,Activity,[16],Non-toxic
same,Activity,MDA-MB-231 [17],Active; Slight Increase In Body Weight Observed
same,Activity,MDA-MB-231 [18],Active
same,Activity,MDA-MB-231 [19],inactive
same,inhibition,MDA-MB-231 [20],Dose-dependent-effect
same,Activity,Homo sapiens [21],inactive
same,Activity,[22],Non-toxic
same,inhibition,[23],Dose-dependent-effect
same,Activity,[24],Non-toxic
same,inhibition,MDA-MB-231 [25],Active; No Significant Difference With Lsd1 Knockout Control Group
same,Activity,MDA-MB-231 [26],inactive
same,inhibition,[27],Time-dependent-effect
same,Activity,[28],Active
same,Activity,Homo sapiens [29],inactive
same,Activity,[30],Non-toxic
same,Activity,[31],Non-toxic
same,Activity,MDA-MB-231 [32],Active
same,Activity,MDA-MB-231 [33],Active; No Significant Difference Compared To Lsd1 Knockout Control Group
same,Activity,MDA-MB-231 [34],46.4%
same,Activity,MDA-MB-231 [35],33.3%
same,Tmax,[36],1.33 h
same,inhibition,[37],Dose-dependent-effect
